The source made the active and inactive calls.
Experiments:
[1] = molecular target: Mitotic checkpoint serine/threonine-protein kinase BUB1 (Homo sapiens, UniProt O43683)
[2] = molecular target: T1, Probable ATP-dependent RNA helicase DDX6 (Homo sapiens, UniProt P26196)
T1 sequence (P26196 whole entry): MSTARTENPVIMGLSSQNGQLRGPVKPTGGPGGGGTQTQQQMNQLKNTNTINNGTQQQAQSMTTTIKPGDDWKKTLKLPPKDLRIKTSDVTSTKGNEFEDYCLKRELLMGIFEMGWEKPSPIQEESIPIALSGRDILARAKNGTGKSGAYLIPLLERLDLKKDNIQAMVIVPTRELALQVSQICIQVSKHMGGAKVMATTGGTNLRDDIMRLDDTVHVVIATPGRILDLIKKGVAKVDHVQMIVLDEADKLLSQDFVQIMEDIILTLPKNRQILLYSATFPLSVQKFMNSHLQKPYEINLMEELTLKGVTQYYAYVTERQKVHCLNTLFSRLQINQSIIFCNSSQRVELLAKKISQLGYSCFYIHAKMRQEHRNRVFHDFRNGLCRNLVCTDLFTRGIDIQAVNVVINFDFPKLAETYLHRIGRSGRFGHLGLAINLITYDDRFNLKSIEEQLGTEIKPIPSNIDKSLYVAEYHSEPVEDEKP

[3] = molecular target: Putative heat shock protein HSP 90-beta 2 (Homo sapiens, UniProt Q58FF8)
Putative heat shock protein HSP 90-beta 2, sequence (Q58FF8 whole entry): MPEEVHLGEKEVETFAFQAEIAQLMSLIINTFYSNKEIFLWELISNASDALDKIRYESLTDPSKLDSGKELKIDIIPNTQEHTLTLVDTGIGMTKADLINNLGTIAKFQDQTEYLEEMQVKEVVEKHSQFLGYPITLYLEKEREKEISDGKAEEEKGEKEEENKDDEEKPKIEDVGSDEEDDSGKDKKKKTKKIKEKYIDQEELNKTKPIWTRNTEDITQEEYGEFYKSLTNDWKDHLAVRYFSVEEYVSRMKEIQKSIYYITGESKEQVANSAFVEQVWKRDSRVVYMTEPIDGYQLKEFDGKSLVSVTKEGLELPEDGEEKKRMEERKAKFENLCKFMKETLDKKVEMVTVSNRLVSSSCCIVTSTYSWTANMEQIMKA

[4] = molecular target: T2, DNA replication licensing factor MCM4 (Homo sapiens, UniProt P33991)
T2 sequence (P33991 whole entry): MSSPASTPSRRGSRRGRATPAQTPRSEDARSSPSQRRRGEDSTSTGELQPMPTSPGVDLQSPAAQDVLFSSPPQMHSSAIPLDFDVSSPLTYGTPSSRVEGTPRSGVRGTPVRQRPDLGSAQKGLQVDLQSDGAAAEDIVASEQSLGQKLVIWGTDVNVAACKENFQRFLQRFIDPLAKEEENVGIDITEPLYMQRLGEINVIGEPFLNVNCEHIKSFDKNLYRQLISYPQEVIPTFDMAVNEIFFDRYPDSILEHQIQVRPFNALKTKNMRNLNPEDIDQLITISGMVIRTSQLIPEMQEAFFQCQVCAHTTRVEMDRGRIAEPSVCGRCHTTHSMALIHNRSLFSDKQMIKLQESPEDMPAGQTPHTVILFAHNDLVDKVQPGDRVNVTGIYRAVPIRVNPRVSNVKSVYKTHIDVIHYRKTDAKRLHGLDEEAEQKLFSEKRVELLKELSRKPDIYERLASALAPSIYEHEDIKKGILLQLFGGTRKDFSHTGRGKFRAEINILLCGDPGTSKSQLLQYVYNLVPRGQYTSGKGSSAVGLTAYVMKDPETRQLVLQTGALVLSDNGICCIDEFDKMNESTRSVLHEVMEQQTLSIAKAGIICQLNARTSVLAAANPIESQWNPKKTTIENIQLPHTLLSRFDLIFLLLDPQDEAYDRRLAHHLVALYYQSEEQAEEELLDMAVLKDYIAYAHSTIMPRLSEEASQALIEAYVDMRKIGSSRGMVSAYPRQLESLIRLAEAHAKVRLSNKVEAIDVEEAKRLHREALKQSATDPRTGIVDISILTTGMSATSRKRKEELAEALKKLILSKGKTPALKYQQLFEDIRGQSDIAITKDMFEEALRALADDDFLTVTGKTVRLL

Midasin = Midasin (Homo sapiens, UniProt Q9NU22)
[5] = molecular target: T3, Serine/threonine-protein kinase Nek2 (Homo sapiens, UniProt P51955)
T3 sequence (P51955 whole entry): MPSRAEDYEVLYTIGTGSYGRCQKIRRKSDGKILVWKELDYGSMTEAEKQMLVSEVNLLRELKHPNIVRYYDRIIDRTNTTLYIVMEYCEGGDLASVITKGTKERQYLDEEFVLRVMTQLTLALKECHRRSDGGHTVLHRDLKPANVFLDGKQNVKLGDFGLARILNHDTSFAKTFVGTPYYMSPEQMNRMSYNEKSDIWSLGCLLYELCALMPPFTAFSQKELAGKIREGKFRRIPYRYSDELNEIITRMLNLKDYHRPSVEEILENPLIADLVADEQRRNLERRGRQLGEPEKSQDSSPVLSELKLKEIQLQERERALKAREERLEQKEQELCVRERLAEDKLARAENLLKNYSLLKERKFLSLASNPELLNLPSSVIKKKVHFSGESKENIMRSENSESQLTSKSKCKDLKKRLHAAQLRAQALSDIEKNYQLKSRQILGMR

[6] = molecular target: T4, Ras-related protein Rab-27A (Homo sapiens, UniProt P51159)
T4 sequence (P51159 whole entry): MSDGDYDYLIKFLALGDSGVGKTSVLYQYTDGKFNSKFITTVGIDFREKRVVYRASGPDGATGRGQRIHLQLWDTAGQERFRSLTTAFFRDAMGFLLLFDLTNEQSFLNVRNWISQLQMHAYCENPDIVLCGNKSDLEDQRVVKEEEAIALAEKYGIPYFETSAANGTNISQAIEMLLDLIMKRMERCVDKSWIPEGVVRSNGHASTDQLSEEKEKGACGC

[7] = molecular target: Proto-oncogene tyrosine-protein kinase Src (Homo sapiens, UniProt P12931)
Proto-oncogene tyrosine-protein kinase Src, sequence (P12931 2-536 limits assumed): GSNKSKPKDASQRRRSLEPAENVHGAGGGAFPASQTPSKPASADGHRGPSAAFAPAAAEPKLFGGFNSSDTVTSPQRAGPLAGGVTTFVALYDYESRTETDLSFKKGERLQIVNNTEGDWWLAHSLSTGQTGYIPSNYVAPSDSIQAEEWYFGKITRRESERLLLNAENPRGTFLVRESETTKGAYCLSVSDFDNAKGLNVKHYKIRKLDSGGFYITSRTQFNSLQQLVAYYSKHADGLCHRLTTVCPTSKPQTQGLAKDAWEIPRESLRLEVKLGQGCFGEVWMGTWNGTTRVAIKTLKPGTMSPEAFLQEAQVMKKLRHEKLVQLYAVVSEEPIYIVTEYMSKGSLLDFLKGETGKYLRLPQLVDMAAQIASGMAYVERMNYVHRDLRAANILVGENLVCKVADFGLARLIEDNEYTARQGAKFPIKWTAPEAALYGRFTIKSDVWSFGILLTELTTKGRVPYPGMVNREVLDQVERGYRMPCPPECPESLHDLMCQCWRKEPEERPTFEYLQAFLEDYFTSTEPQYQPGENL

[8] = molecular target: T5, Signal recognition particle receptor subunit alpha (Homo sapiens, UniProt P08240)
T5 sequence (P08240 whole entry): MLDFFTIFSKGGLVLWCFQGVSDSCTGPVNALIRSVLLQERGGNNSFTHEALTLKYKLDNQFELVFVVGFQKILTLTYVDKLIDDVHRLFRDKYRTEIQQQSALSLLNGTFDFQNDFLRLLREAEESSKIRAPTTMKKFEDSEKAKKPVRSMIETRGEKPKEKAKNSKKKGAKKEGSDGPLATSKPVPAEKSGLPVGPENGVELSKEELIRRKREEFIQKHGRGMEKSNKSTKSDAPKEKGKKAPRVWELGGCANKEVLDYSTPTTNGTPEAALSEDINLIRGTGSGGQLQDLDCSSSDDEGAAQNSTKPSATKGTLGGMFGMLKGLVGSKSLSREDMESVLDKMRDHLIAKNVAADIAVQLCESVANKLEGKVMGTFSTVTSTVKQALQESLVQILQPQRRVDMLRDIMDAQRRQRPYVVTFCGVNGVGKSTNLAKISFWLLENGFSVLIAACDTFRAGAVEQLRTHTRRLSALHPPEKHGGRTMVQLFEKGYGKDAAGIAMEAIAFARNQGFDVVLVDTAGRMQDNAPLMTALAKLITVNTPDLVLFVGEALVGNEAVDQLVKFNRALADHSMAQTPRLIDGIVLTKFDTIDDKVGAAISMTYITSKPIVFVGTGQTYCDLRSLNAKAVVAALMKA

Activated CDC42 kinase 1 = Activated CDC42 kinase 1 (Homo sapiens, UniProt Q07912)
Activated CDC42 kinase 1, sequence (Q07912 whole entry): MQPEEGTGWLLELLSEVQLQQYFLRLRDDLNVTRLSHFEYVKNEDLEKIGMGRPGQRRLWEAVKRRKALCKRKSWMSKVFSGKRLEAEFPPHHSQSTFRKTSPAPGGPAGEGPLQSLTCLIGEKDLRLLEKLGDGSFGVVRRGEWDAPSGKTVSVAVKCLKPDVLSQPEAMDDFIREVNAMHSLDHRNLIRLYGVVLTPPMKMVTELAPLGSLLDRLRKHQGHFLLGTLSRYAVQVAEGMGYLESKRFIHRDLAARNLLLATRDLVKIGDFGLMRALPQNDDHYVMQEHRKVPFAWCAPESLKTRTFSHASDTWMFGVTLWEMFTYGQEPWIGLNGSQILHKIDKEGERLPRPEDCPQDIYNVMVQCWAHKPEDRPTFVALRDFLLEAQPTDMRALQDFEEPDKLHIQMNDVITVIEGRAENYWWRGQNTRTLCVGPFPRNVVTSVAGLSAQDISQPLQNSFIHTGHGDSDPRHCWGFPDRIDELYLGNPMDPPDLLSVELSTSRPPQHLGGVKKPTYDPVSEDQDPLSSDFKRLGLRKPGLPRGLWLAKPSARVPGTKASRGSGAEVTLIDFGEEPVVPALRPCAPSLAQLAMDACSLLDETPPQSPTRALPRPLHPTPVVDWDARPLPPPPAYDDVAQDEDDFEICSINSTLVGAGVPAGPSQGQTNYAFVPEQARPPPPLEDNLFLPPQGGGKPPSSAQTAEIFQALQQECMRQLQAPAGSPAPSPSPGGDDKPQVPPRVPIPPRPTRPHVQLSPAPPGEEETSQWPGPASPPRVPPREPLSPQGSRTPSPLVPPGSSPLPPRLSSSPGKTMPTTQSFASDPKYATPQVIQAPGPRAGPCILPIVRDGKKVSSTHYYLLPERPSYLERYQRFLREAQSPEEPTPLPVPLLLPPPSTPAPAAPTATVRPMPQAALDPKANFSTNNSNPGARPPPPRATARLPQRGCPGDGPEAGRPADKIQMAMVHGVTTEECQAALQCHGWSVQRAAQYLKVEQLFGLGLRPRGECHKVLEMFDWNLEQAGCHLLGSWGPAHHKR
Note: in the data inactive means no Kd found up to 30 µM.

Mitotic checkpoint serine/threonine-protein kinase BUB1, sequence (O43683 whole entry): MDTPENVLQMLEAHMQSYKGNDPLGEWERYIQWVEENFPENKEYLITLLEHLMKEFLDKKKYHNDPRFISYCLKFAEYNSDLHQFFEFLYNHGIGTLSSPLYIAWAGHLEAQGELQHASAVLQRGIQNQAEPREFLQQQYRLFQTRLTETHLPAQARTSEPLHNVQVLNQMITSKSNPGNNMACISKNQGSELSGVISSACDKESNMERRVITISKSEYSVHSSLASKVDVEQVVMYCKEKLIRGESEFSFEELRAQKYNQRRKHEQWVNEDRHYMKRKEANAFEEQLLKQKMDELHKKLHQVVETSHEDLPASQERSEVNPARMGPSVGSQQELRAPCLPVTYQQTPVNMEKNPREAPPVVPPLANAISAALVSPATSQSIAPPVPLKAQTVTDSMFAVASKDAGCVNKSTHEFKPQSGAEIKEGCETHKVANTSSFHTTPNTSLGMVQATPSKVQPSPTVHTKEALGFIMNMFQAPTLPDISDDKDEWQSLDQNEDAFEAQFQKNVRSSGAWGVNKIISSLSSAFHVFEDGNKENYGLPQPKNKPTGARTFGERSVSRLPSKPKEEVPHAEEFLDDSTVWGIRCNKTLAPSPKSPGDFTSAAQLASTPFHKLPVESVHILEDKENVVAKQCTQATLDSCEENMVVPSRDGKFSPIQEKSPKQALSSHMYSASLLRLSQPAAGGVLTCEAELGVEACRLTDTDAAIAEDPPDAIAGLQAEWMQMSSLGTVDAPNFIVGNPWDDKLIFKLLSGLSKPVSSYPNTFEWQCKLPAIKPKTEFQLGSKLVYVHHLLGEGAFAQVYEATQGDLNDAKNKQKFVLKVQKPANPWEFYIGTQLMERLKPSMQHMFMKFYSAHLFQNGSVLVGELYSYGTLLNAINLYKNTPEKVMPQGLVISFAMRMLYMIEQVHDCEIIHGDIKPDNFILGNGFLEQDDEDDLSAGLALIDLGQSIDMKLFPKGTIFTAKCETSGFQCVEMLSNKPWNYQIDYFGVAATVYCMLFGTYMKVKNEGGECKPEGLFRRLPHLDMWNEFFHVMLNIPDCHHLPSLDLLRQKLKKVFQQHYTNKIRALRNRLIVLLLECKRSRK

Row | Structure (SMILES) | Kd [1] | Kd [2] | Kd [3] | Kd [4] | Kd (Midasin) | Kd [5] | Kd [6] | Kd [7] | Kd [8] | Kd (Activated CDC42 kinase 1)
1 | COc1cc2nccc(Oc3ccc(NC(=O)C4(C(=O)Nc5ccc(F)cc5)CC4)cc3)c2cc1OC [CABOZANTINIB] | > 30 µM (inactive) | > 30 µM (inactive) | > 30 µM (inactive) | > 30 µM (inactive) | > 30 µM (inactive) | > 30 µM (inactive) | > 30 µM (inactive) | > 30 µM (inactive) | > 30 µM (inactive) | > 30 µM (inactive)
2 | O=C(Nc1ccc(OC(F)(F)F)cc1)c1sccc1NCc1ccnc2ccccc12 [OSI-930] | > 30 µM (inactive) | > 30 µM (inactive) | > 30 µM (inactive) | > 30 µM (inactive) | > 30 µM (inactive) | > 30 µM (inactive) | > 30 µM (inactive) | > 30 µM (inactive) | > 30 µM (inactive) | > 30 µM (inactive)
3 | Cc1cc(Nc2nc(N[C@@H](C)c3ncc(F)cn3)ncc2Cl)n[nH]1 [AZD-1480] | > 30 µM (inactive) | > 30 µM (inactive) | > 30 µM (inactive) | > 30 µM (inactive) | > 30 µM (inactive) | > 30 µM (inactive) | > 30 µM (inactive) | > 30 µM (inactive) | > 30 µM (inactive) | 0.515 µM (active)
4 | CNC(=O)c1cc(COc2nnc(Nc3ccc(Cl)cc3)c3ccoc23)ccn1 [TELATINIB] | > 30 µM (inactive) | > 30 µM (inactive) | > 30 µM (inactive) | > 30 µM (inactive) |  | > 30 µM (inactive) | > 30 µM (inactive) | > 30 µM (inactive) | > 30 µM (inactive) | > 30 µM (inactive)
5 | O=C(NOC[C@H](O)CO)c1ccc(F)c(F)c1Nc1ccc(I)cc1F [MIRDAMETINIB] | > 30 µM (inactive) | > 30 µM (inactive) | > 30 µM (inactive) | > 30 µM (inactive) |  | > 30 µM (inactive) | > 30 µM (inactive) | > 30 µM (inactive) | > 30 µM (inactive) | > 30 µM (inactive)
6 | NC[C@@](O)(c1ccc(Cl)cc1)c1ccc(-c2cn[nH]c2)cc1 [AT-13148] |  | > 30 µM (inactive) | > 30 µM (inactive) | > 30 µM (inactive) | > 30 µM (inactive) | > 30 µM (inactive) | > 30 µM (inactive) | > 30 µM (inactive) | > 30 µM (inactive) | > 30 µM (inactive)
7 | CCOc1ccn(-c2ccc(F)cc2)c(=O)c1C(=O)Nc1ccc(Oc2ccnc(N)c2Cl)c(F)c1 [BMS-777607] |  | > 30 µM (inactive) | > 30 µM (inactive) | > 30 µM (inactive) | > 30 µM (inactive) | > 30 µM (inactive) | > 30 µM (inactive) | > 30 µM (inactive) | > 30 µM (inactive) | > 30 µM (inactive)
8 | Cc1c(Cn2c(C)nc3c(C(=O)O)cc(N4CCOCC4)cc32)cccc1C(F)(F)F [GSK-2636771] | > 30 µM (inactive) | > 30 µM (inactive) | > 30 µM (inactive) | > 30 µM (inactive) | > 30 µM (inactive) | > 30 µM (inactive) |  | > 30 µM (inactive) | > 30 µM (inactive) | > 30 µM (inactive)
9 | S=C(NCc1ccc2c(c1)OCO2)N1CCN(c2ncnc3c2oc2ccccc23)CC1 [AMUVATINIB] | > 30 µM (inactive) | > 30 µM (inactive) |  | > 30 µM (inactive) | > 30 µM (inactive) | > 30 µM (inactive) | > 30 µM (inactive) | > 30 µM (inactive) | > 30 µM (inactive) | > 30 µM (inactive)
10 | COc1cc2ncnc(Nc3ccc(O)cc3)c2cc1OC [WHI-P131] | > 30 µM (inactive) | > 30 µM (inactive) | > 30 µM (inactive) | > 30 µM (inactive) | > 30 µM (inactive) | > 30 µM (inactive) |  | > 30 µM (inactive) | > 30 µM (inactive) | > 30 µM (inactive)

— ChEMBL document CHEMBL3991601, “The target landscape of clinical kinase drugs” (Science, 2017)
